One experiment has as its system H4. In words: Luminescence Cell-Based Dose Response HTS to Identify Activators of 5'UTR Stem-Loop Driven Prion Protein mRNA Translation in H4 Neuroglioblastoma Cells. [Related pubchem assays: 1829 (Project Summary), 1814 (Primary HTS)]. It is filed as functional. To be noted: Homo sapiens.
Experiment [1] is described as follows: Luminescence Cell-Based Dose Confirmation HTS to Identify Activators of 5'UTR Stem-Loop Driven Alpha-Synuclein mRNA Translation in H4 Neuroglioblastoma Cells. [Related pubchem assays: 1829 (Project Summary), 1814 (Primary HTS)]. It is filed as functional.
Experiment [2] is described as follows: Luminescence Cell-Based Dose Retest to Confirm Inhibitors of Cancer Stem Cells. [Related pubchem assays (depositor defined):AID2717, AID2721]. It is filed as functional. To be noted: Homo sapiens.
The nature of experiment [3]: Luminescence Cell-Based Dose Response HTS to Identify Activators of Luciferase Translation or Activity in H4 […] Cells. [Related pubchem assays: 1829 (Project Summary), 1814 (Primary HTS)]. It is filed as functional.
The next experiment is described as follows: cells. In kind it is functional.
A short description of experiment [4]: THP-1 cell cytotoxicity, dose response, cytotoxicity control for non-replicating M. tuberculosis project (AID 489025). In kind it is functional.
For experiment [5], the target named is T1, Microphthalmia-associated transcription factor (Homo sapiens, UniProt O75030).
T1 sequence (O75030 whole entry): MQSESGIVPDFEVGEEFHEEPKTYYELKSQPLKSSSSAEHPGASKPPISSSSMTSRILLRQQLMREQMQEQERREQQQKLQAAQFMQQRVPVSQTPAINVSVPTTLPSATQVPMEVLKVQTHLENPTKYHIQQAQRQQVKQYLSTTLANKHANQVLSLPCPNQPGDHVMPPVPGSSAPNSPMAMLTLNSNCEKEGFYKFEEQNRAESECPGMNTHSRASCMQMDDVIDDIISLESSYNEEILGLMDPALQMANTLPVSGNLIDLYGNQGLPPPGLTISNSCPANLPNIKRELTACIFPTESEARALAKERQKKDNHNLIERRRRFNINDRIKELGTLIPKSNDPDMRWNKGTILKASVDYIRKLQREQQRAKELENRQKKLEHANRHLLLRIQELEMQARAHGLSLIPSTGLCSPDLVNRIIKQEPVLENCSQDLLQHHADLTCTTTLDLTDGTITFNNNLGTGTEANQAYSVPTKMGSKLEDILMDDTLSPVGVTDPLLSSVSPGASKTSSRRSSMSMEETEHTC
The experiment is described as follows: reducers of TRPM1 reporter luminescence, concentration series – cell-based, SK-MEL-5, cherry-picked, set 3, MITF inhibitor project, dose response (AID 493073).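 Note: SK-MEL-5 melanoma cells with luciferase driven by the MITF target TRPM1 promoter.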 In kind it is functional.

Experiment [6] can be described thus: Vero E6 cell cytotoxicity, dose response, cytotoxicity control for non-replicating M. tuberculosis project, secondary assay (AID 492998). As to conditions: Vero C1008. In kind it is functional, VeroE6.
For experiment [7], the target named is Peroxisome proliferator-activated receptor gamma/Nuclear receptor coactivator 2 (Homo sapiens, UniProt P37231). In words: TR-FRET dose response biochemical High Throughput Screening assay for agonists of the steroid receptor coactivator 2 (SRC-2) recruitment by the peroxisome proliferator-activated receptor gamma (PPAR gamma): non-selective agonists. [Related pubchem assays: 1297, 1032 ]. In kind it is functional. (Time-resolved FRET reads energy transfer from a long-lived donor to a nearby acceptor.)
Chain of Peroxisome proliferator-activated receptor gamma/Nuclear receptor coactivator 2 (P37231 whole entry): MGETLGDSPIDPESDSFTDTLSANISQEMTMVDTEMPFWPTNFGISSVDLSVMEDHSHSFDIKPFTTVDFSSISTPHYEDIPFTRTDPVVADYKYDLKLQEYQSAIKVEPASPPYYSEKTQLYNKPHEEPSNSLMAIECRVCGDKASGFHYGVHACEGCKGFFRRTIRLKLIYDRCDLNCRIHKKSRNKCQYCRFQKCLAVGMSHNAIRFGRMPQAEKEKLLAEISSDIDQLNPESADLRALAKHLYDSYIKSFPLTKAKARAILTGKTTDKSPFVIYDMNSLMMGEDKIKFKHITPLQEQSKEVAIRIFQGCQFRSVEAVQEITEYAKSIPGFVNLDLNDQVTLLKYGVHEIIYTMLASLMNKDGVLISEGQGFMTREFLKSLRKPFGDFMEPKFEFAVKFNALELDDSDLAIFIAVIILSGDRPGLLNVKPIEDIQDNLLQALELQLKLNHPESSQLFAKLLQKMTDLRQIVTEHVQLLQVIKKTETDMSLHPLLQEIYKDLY
Chain of Peroxisome proliferator-activated receptor gamma/Nuclear receptor coactivator 2 (Q15596 whole entry, further chain): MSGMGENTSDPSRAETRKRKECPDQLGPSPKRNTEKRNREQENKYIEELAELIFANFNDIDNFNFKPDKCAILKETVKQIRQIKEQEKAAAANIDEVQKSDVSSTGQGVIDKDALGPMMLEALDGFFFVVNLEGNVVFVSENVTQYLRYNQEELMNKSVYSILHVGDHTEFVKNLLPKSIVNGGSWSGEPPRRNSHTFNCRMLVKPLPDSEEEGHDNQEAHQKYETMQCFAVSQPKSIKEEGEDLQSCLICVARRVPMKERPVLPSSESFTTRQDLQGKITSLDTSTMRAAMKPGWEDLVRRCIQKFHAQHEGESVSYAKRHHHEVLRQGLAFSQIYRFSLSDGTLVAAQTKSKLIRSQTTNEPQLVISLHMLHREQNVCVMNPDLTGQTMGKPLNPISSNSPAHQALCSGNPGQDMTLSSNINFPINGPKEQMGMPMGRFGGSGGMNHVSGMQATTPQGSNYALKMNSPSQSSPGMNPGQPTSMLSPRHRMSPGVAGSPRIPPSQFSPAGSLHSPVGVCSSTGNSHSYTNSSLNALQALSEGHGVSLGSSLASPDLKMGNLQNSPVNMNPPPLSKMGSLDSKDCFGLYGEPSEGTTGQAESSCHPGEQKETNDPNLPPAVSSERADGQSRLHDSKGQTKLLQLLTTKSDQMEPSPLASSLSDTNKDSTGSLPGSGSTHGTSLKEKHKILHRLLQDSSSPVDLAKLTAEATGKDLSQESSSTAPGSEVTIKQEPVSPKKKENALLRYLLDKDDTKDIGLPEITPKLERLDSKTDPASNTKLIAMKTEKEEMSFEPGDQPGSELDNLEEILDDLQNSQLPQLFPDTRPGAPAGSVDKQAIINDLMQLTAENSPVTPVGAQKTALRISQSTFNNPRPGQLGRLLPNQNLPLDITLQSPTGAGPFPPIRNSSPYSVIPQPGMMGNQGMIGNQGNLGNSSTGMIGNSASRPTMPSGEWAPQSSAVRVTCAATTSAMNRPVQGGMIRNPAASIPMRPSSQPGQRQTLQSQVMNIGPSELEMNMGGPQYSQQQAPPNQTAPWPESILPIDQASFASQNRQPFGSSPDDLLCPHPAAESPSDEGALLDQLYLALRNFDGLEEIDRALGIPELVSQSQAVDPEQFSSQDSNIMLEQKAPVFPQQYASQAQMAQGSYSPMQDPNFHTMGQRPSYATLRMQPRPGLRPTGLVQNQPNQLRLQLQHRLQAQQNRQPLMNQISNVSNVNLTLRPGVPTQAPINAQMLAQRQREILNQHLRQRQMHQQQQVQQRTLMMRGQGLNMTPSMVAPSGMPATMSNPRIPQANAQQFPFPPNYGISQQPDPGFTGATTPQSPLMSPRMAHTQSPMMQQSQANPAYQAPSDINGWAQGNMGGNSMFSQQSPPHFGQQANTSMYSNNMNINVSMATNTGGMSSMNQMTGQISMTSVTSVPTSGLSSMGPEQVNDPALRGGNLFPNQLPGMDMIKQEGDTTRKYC

Experiment [8] has as its target Peroxisome proliferator-activated receptor gamma/Nuclear receptor coactivator 3 (Homo sapiens, UniProt P37231). The experiment is described as follows: TR-FRET dose response biochemical High Throughput Screening assay for agonists of the steroid receptor coactivator 3 (SRC-3) recruitment by the peroxisome proliferator-activated receptor gamma (PPAR gamma): non-selective agonists. [Related pubchem assays: 1301 (Confirmation screen.), 1048 (Primary screen.)]. It is filed as functional.

Experiment [9] concerns the target Peroxisome proliferator-activated receptor gamma/Nuclear receptor coactivator 1 (Homo sapiens, UniProt P37231). In words: TR-FRET dose response biochemical High Throughput Screening assay for agonists of the steroid receptor coactivator 1 (SRC-1) recruitment by the peroxisome proliferator-activated receptor gamma (PPAR gamma): non-selective agonists. [Related pubchem assays (depositor defined):AID1300, AID1808, AID504735, AID631]. It is filed as protein assay.

Another experiment deals with T2, Hexokinase HKDC1 (Homo sapiens, UniProt Q2TB90).
T2 sequence (Q2TB90 whole entry): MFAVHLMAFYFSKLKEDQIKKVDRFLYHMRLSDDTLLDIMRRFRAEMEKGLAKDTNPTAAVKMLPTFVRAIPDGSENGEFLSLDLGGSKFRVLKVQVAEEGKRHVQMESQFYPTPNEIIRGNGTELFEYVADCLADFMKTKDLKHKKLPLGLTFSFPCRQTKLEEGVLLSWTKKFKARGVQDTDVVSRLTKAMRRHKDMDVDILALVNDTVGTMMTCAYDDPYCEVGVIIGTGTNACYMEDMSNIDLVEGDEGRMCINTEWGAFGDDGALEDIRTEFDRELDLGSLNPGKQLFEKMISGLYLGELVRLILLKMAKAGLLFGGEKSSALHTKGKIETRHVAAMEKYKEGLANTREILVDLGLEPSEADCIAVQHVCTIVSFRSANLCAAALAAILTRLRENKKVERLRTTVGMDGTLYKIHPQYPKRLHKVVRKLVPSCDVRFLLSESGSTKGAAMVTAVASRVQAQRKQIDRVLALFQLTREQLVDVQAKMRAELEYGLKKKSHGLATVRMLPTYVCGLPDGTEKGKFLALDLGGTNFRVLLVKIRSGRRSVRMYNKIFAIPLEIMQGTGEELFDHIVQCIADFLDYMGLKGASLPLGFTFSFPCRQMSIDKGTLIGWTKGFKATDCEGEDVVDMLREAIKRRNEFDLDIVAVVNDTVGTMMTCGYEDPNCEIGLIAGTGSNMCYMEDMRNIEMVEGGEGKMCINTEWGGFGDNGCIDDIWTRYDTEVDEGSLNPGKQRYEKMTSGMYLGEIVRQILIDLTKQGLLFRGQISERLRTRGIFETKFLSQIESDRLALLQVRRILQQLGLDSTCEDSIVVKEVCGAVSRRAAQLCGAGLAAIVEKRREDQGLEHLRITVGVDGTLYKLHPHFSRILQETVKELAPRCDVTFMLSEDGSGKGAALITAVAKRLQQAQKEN
The experiment is described as follows: activation of HKDC1 glucose phosphorylation – biochemical, W721R variant, dose response (AID 504730). In kind it is functional.

The target of a further experiment is T3, Hexokinase-1 (Homo sapiens, UniProt P19367).
T3 sequence (P19367 whole entry): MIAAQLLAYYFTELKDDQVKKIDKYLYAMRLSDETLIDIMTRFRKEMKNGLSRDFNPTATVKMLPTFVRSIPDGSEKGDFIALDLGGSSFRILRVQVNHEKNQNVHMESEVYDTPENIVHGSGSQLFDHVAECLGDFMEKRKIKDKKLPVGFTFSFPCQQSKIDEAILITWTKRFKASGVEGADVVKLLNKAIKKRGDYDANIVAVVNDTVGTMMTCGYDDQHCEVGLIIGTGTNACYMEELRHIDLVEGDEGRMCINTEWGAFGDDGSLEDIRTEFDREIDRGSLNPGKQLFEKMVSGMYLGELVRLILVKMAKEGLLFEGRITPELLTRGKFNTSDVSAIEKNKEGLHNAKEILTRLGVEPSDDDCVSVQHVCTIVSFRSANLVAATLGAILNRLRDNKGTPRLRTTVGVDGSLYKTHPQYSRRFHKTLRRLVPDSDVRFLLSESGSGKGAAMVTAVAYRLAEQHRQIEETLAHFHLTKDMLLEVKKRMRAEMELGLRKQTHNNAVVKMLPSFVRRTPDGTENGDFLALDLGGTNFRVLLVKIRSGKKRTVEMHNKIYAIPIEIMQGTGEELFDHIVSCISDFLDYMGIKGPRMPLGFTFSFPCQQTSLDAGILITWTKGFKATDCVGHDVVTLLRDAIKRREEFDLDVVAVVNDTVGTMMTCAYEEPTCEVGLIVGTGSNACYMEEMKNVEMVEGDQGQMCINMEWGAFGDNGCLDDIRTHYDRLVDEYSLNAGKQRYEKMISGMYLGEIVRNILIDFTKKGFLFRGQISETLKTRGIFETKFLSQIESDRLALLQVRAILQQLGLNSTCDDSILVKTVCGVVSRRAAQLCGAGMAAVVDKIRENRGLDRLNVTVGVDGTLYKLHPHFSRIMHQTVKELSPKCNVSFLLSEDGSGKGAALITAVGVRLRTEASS
In words: HK1 enzyme activation by HKDC1 hits – biochemical, selectivity assay for HKDC1 activator project, dose response (AID 504762). It is filed as functional.

Another experiment addresses Paired box protein Pax-8 (Homo sapiens, UniProt Q06710). The experiment is described as follows: PAX8 transcriptional activity inhibition in RMG-I – RMG-I cells, luciferase, cherry-pick, dose response (AID 687027).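 Note: luciferase reporter driven by Pax8 target thyroperoxidase promoter measured by SteadyGlo luminescence.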 It is filed as functional, cell-based.
Experiment [10] addresses Heat shock protein HSP 90-alpha (Homo sapiens, UniProt P07900). In kind it is functional, organism-based.
A further experiment concerns the target Nonstructural protein 1 (Influenza A virus, UniProt Q194T2). It is filed as functional, Influenza A virus (A/California/07/2009(H1N1)).

The structures appear in SMILES notation. The source made the active and inactive calls.

Chain of Peroxisome proliferator-activated receptor gamma/Nuclear receptor coactivator 1 (P37231 whole entry): as the sequence (P37231 whole entry) above
Chain of Peroxisome proliferator-activated receptor gamma/Nuclear receptor coactivator 1 (Q15788 whole entry, further chain): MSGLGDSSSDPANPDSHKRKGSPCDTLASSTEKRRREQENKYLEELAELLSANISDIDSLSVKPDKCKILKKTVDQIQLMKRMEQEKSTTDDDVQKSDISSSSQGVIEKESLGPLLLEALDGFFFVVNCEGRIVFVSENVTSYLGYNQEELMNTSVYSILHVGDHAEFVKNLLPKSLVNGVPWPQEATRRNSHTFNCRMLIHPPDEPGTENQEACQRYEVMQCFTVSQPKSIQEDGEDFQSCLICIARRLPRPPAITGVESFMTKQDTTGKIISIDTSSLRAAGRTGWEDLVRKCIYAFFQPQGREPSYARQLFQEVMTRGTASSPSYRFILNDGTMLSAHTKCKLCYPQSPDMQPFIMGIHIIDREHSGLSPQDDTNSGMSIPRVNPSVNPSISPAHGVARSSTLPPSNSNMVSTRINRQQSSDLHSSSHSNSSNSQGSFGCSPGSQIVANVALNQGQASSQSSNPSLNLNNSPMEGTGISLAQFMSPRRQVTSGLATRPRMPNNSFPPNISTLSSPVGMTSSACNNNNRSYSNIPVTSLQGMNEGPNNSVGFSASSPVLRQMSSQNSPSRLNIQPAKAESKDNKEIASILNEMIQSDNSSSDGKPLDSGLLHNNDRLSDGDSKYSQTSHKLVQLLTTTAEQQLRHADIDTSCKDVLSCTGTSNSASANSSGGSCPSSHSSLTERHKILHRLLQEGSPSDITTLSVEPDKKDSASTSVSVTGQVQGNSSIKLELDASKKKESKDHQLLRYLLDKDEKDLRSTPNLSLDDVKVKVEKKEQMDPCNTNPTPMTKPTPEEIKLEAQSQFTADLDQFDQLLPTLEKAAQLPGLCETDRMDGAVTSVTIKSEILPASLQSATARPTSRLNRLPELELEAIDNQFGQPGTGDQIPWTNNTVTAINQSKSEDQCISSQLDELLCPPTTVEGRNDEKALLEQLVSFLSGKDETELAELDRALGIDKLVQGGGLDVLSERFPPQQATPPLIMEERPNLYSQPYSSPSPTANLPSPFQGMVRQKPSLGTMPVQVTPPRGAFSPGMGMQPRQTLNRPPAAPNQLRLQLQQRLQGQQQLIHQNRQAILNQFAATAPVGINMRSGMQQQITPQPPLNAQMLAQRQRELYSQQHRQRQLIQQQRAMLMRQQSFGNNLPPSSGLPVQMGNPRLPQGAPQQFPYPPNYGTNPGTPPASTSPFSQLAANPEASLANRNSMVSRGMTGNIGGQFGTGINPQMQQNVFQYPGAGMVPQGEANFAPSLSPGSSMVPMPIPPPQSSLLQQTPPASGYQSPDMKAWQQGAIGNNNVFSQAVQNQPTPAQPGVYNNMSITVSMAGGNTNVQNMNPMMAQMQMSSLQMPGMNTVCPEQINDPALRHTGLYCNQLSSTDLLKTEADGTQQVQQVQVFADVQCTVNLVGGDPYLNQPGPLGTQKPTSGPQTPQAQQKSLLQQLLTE
Chain of Nonstructural protein 1 (Q194T2 whole entry): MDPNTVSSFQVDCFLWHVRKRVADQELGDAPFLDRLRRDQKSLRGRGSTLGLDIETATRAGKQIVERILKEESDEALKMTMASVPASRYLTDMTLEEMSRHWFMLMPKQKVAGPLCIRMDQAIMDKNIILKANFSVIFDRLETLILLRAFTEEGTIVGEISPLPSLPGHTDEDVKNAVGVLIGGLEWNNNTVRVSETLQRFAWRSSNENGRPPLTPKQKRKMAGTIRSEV
Chain of Paired box protein Pax-8 (Q06710 whole entry): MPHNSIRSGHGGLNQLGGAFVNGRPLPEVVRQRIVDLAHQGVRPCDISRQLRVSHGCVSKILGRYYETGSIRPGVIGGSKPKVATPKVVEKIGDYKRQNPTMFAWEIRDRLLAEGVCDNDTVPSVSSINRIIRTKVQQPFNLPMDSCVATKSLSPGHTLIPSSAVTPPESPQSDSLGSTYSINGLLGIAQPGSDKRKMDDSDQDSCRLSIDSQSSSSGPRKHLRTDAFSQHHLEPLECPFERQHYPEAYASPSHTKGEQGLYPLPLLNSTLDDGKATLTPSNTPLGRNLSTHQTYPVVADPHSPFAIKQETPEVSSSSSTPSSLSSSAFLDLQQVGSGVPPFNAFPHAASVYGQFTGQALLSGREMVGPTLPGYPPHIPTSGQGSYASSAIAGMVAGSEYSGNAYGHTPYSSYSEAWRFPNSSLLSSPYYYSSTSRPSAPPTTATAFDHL

Regarding `O=C(Nc1cccc(S(=O)(=O)N2CCCCC2)c1)c1ccc([N+](=O)[O-])o1`, the half-maximal effective concentration (EC50) (in the experiment on H4; in [1]; in experiment [3]) was > 120 µM (not active) each time. The AC50 in [2] is 2.44 µM (active); in experiment [5] it was 11.9 µM (active). The IC50 in “cells” was 5.03 µM (active). The values for the half-maximal cytotoxic concentration (CC50) in [4] and in experiment [6] were 8.73 µM (active) and 4.29 µM (active), respectively.

Consider `Fc1cccc(CSc2ncnc3c2oc2ccccc23)c1`, for which the EC50 is 14.3 µM (not active) in experiment [7], 85.8 µM (not active) in experiment [8] and 24.2 µM (inactive) in [9].

For `Cc1ccc2oc(=O)c3cnn(CC(=O)N4CCc5ccccc5C4)c3c2c1`, the EC50 at Hexokinase HKDC1 is 16 µM (active); at Hexokinase-1 it was 36.7 µM (inactive).

As to `O=C(CSc1ccccc1)Nc1ccc(C(=O)Nc2ccc(O)cc2)cc1`, the EC50 in experiment [7] was 8.24 µM (active); in [8] it was 58.3 µM (not active); in [9] it was 9.68 µM (active).

Take `CC(=NNC(=S)N1CCN(C2CCCCCC2)CC1)c1ccccn1`: the concentration at half-maximal activity (AC50) on Paired box protein Pax-8 was < 0.26 µM (active); in experiment [10] it was 3.35 µM (active). In addition, the concentration giving a half-maximal response (EC50) was 8.14 µM (active) at Hexokinase HKDC1 and > 80 µM (inactive) on Hexokinase-1. For the same compound, at Nonstructural protein 1, the concentration for half-maximal inhibition (IC50) is 1.66 µM (active).

Usually EC50 stands for the concentration that produces a half-maximal response. The term AC50 denotes the midpoint of the concentration-response curve, whichever way the signal moves. By IC50 is commonly meant the concentration that inhibits the measured activity by half. As a reminder, the CC50 is the concentration at which the toxic effect on the cells reaches its halfway point.

(Values after ChEMBL document CHEMBL1201862, “PubChem BioAssay data set” (2004).)
